Data published in the supplement of paper PMC10331698.
± gives the standard deviation of the averaged measurements.

Experiments:
Experiment in all cases: level (log10 ratio to DMSO vehicle control); higher = higher biomarker level / cell amount than vehicle control
Details in all cases: in DMSO
[1] = compound: O=C(O)C(F)(F)OC(F)(F)C(F)(F)OC(F)(F)C(F)(F)C(F)(F)C(F)(F)F [Perfluoro-3,6-dioxadecanoic acid]
Experimental: (§1)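 BioMAP Diversity Plus panel of 12 human primary cell co-culture systems (3C, 4H, LPS, SAg, BT, BF4T, BE3C, CASM3C, HDF3CGF, KF3CT, MyoF, Mphg). Compounds were added 1 h before stimulation and left for 24 h (MyoF 48 h; BT 72 h for soluble read-outs or 6 d for IgG). Biomarkers were read by ELISA, cytotoxicity by SRB, PBMC viability and proliferation by Alamar Blue. Each well value was divided by the mean of 8 DMSO control wells on the same plate and log10 transformed; duplicate blinded samples were tested at 4 concentrations.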

[2] = compound: FC(F)(F)C(F)(F)C(F)(F)C(F)(F)C(F)(F)C(F)(F)C(F)(F)CCI [1-Iodo-1H,1H,2H,2H-perfluorononane]
Experimental: as §1

Perfluorooctanamide = compound: NC(=O)C(F)(F)C(F)(F)C(F)(F)C(F)(F)C(F)(F)C(F)(F)C(F)(F)F [Perfluorooctanamide]
Experimental: as §1

Azathioprine = compound: Cn1cnc([N+](=O)[O-])c1Sc1ncnc2[nH]cnc12 [Azathioprine]
Experimental: as §1

[3] = compound: O=S(=O)(O)C(F)(F)C(F)(F)C(F)(F)C(F)(F)C(F)(F)C(F)(F)C(F)(F)C(F)(F)F [Perfluorooctanesulfonic acid]
Experimental: as §1

[4] = compound: O=C(O)C(F)(F)C(F)(F)C(F)(F)C(F)(F)C(F)(F)C(F)(F)C(F)(F)C(F)(F)Cl [9-Chloro-perfluorononanoic acid]
Experimental: as §1

1-(Perfluorohexyl)octane = compound: CCCCCCCCC(F)(F)C(F)(F)C(F)(F)C(F)(F)C(F)(F)C(F)(F)F [1-(Perfluorohexyl)octane]
Experimental: as §1

Test System	level (log10) ([1]; 6700 nM)	level (log10) ([1]; 20000 nM)	level (log10) ([1]; 60000 nM)	level (log10) ([2]; 6700 nM)	level (log10) ([2]; 20000 nM)	level (log10) (Perfluorooctanamide; 6700 nM)	level (log10) (Perfluorooctanamide; 20000 nM)	level (log10) (Perfluorooctanamide; 60000 nM)	level (log10) (Azathioprine; 1400 nM)	level (log10) (Azathioprine; 4200 nM)	level (log10) (Azathioprine; 13000 nM)	level (log10) (Azathioprine; 38000 nM)	level (log10) ([3]; 6700 nM)	level (log10) ([3]; 20000 nM)	level (log10) ([3]; 60000 nM)	level (log10) ([4]; 6700 nM)	level (log10) ([4]; 20000 nM)	level (log10) (1-(Perfluorohexyl)octane; 6700 nM)	level (log10) (1-(Perfluorohexyl)octane; 20000 nM)
KF3CT:CD54/ICAM-1	-0.0295 ± 0.023	-0.0435 ± 0.0035	-0.033 ± 0.0085	-0.0045 ± 0.0092	-0.0175 ± 0.025	0.0015 ± 0.0078	0 ± 0.014	0.001	-0.02 ± 0.0028	0.0015 ± 0.0092	-0.005 ± 0.0085	0.0045 ± 0.011	-0.0085 ± 0.0035	0.003 ± 0.02	0.0115 ± 0.011	-0.0175 ± 0.00071	-0.039 ± 0.0014	0.0045 ± 0.033	-0.0065 ± 0.0035
HDF3CGF:Collagen III	-0.024 ± 0.044	-0.0885 ± 0.035	-0.286 ± 0.045	-0.063 ± 0.023	-0.138 ± 0.028	-0.018 ± 0.014	-0.02 ± 0.0014	-0.0085 ± 0.056	-0.0145 ± 0.074	-0.114 ± 0.088	-0.101 ± 0.0064	-0.22 ± 0.096	-0.024 ± 0.031	-0.0155 ± 0.015	-0.0585 ± 0.013	-0.0835 ± 0.046	-0.235 ± 0.061	-0.029 ± 0.042	-0.0315 ± 0.042
MyoF:Collagen I	-0.026 ± 0.025	-0.0525 ± 0.0021	-0.19 ± 0.011	0.007 ± 0.0042	-0.015 ± 0.028	-0.007 ± 0.0099	-0.0265 ± 0.015	-0.0435 ± 0.0035	-0.0085 ± 0.015	-0.0095 ± 0.013	-0.024	0.011 ± 0.0028	-0.012 ± 0.018	-0.0045 ± 0.0092	0.015 ± 0.021	-0.0135 ± 0.005	-0.29 ± 0.019	0.0045 ± 0.016	-0.0205 ± 0.0035
CASM3C:CXCL9/MIG	-0.006 ± 0.0085	-0.0045 ± 0.015	0.0155 ± 0.06	-0.0355 ± 0.025	-0.057 ± 0.042	-0.0205 ± 0.037	0.0135 ± 0.0021	0.0365 ± 0.032	0.012 ± 0.033	-0.0135 ± 0.005	0.008 ± 0.0057	0.0525 ± 0.042	-0.0085 ± 0.00071	-0.003 ± 0.0014	0.0705 ± 0.032	-0.0355 ± 0.0035	-0.0235 ± 0.013	-0.0115 ± 0.0021	0.0255 ± 0.005
CASM3C:LDLR	0.0015 ± 0.022	-0.016 ± 0.0028	-0.0065 ± 0.023	-0.016 ± 0.021	0.026 ± 0.024	-0.0175 ± 0.0035	0.0135 ± 0.026	0.031 ± 0.027	-0.0055 ± 0.018	-0.01 ± 0.0085	-0.024 ± 0.023	-0.034 ± 0.011	-0.002 ± 0.0085	-0.007 ± 0.0014	-0.0165 ± 0.032	-0.011 ± 0.013	-0.0065 ± 0.0021	-0.0125 ± 0.00071	0.019 ± 0.014
lMphg:IL-1alpha	-0.0105 ± 0.056	-0.021 ± 0.011	0.021 ± 0.011	-0.012 ± 0.014	0.055 ± 0.045	0.01 ± 0.034	0.0265 ± 0.054	0.04 ± 0.058	0.0185 ± 0.067	0.0045 ± 0.0078	-0.0015 ± 0.023	-0.005 ± 0.057	0.0015 ± 0.022	0.0075 ± 0.013	0.017 ± 0.0085	0.014 ± 0.027	0.0635 ± 0.046	-0.0215 ± 0.013	0.0085 ± 0.074
CASM3C:HLA-DR	0.002 ± 0.03	0.0015 ± 0.011	0.0245 ± 0.026	0.0055 ± 0.0064	-0.007 ± 0.0071	0.003 ± 0.041	0.0125 ± 0.0092	0.0005 ± 0.011	-0.0165 ± 0.0021	-0.0115 ± 0.026	-0.0405 ± 0.011	-0.055 ± 0.031	-0.0365 ± 0.012	-0.0465 ± 0.016	-0.0395 ± 0.052	0.0085 ± 0.0035	0.0015 ± 0.012	-0.0155 ± 0.015	-0.0125 ± 0.005
KF3CT:PAI-I	-0.007 ± 0.0014	-0.0325 ± 0.0078	-0.0495 ± 0.021	0.0115 ± 0.022	0.017 ± 0.021	-0.004 ± 0.011	-0.0085 ± 0.011	0.0005 ± 0.0064	0.01 ± 0.024	-0.0105 ± 0.015	-0.0365 ± 0.011	-0.071 ± 0.0071	-0.0255 ± 0.013	-0.058 ± 0.02	-0.135 ± 0.052	-0.01 ± 0.0057	-0.101 ± 0.0078	0.0165 ± 0.0078	0.026 ± 0.011
CASM3C:M-CSF	-0.0055 ± 0.035	-0.024 ± 0.0057	0.0115 ± 0.073	-0.0035 ± 0.0078	0.0125 ± 0.028	-0.0055 ± 0.04	0.0035 ± 0.03	0.027 ± 0.048	0.0065 ± 0.00071	-0.0255 ± 0.018	-0.0305 ± 0.0064	-0.007 ± 0.038	-0.0135 ± 0.016	0.009 ± 0.0028	-0.009 ± 0.03	-0.0235 ± 0.0035	-0.0315 ± 0.011	-0.0095 ± 0.013	0.0125 ± 0.036
HDF3CGF:CD54/ICAM-1	-0.0025 ± 0.021	-0.0125 ± 0.026	-0.038 ± 0.04	-0.0105 ± 0.016	0.0095 ± 0.0035	-0.009	0.002 ± 0.0085	-0.02 ± 0.016	-0.0065 ± 0.011	0.0045 ± 0.0078	0.0015 ± 0.019	-0.0195 ± 0.012	-0.025 ± 0.013	-0.0105 ± 0.00071	-0.033 ± 0.014	-0.077 ± 0.017	-0.112 ± 0.014	0.0025 ± 0.005	-0.0055 ± 0.037
MyoF:CD106/VCAM-1	-0.0055 ± 0.00071	-0.0285 ± 0.026	-0.045 ± 0.021	-0.007 ± 0.023	-0.003 ± 0.0014	-0.0115 ± 0.015	0.014 ± 0.0014	-0.0185 ± 0.011	-0.01 ± 0.0099	0.008	-0.0165 ± 0.005	-0.022 ± 0.014	0.0055 ± 0.0021	0.0085 ± 0.016	0.0165 ± 0.023	-0.008 ± 0.025	-0.101 ± 0.023	-0.0085 ± 0.005	-0.027 ± 0.033
MyoF:PAI-I	0.001 ± 0.0014	-0.0005 ± 0.0092	-0.015 ± 0.0057	-0.002 ± 0.02	-0.0025 ± 0.0035	-0.009	-0.014 ± 0.0071	0.005 ± 0.0014	-0.004 ± 0.0085	-0.0025 ± 0.0064	-0.0015 ± 0.005	0 ± 0.0085	0.003 ± 0.017	-0.0105 ± 0.0064	-0.0055 ± 0.0092	-0.0065 ± 0.0078	-0.0185 ± 0.011	-0.008 ± 0.0014	-0.007 ± 0.0042
CASM3C:CD87/uPAR	0.001 ± 0.0014	-0.0055 ± 0.0064	-0.0175 ± 0.025	-0.0105 ± 0.028	-0.013 ± 0.028	-0.009 ± 0.0014	-0.001 ± 0.024	0.0045 ± 0.0092	0.0115 ± 0.0021	0.014 ± 0.0099	-0.002 ± 0.067	-0.0325 ± 0.0035	-0.0005 ± 0.0078	-0.0085 ± 0.015	-0.016 ± 0.016	-0.002	0.02 ± 0.0071	-0.0175 ± 0.0078	-0.005 ± 0.011
HDF3CGF:M-CSF	-0.0555 ± 0.067	-0.065 ± 0.011	-0.152 ± 0.0078	-0.0895 ± 0.049	-0.12 ± 0.064	0.001 ± 0.023	0.0055 ± 0.00071	0.027 ± 0.0014	-0.0255 ± 0.039	-0.018 ± 0.042	-0.0595 ± 0.011	-0.184 ± 0.025	0.0225 ± 0.018	0.018 ± 0.013	-0.075 ± 0.0042	-0.058 ± 0.041	-0.089 ± 0.025	-0.022 ± 0.031	-0.0025 ± 0.021
MyoF:SRB	0	-0.002	-0.0515 ± 0.0092	0.016 ± 0.0014	0.0325 ± 0.0021	-0.006 ± 0.0042	0.0045 ± 0.012	-0.0055 ± 0.011	-0.0055 ± 0.0092	0.0015 ± 0.0021	0.0005 ± 0.0035	-0.015 ± 0.0057	-0.0045 ± 0.00071	-0.0155 ± 0.00071	-0.0185 ± 0.019	-0.004	-0.0605 ± 0.005	0.011 ± 0.016	0.006 ± 0.0042
